pIC50: −log10 of the molar value. Like-named read-outs stand apart in the source and are kept apart here. Where a SMILES comes first, the peptide text is derived from it. [ ]: non-standard residue; d: D form. The star is where a group is joined. Dolaproine = CO[C@@H]([C@@H]1CCCN1)[C@@H](C)C(=O)O; Dil = CC[C@H](C)[C@H](NC)[C@@H](CC(=O)O)OC; X1 = C[C@@H](N*)[C@@H](O)c1ccccc1; NMeV = CN[C@H](C(=O)O)C(C)C
Key:
N6/ADR cells = test: XTT cytotoxicity, N6/ADR; format: cell-based; conditions: for IC50 ratio between resistant and non-resistant cells: N6/ADR / NALM6; for sensitivity to Pgp glycoprotein overexpression: N6/ADR vs NALM6 dose response; for pIC50: N6/ADR, acute lymphoblastic leukemia, P-gp overexpression, read-out: IC50
Experimental: (§1) The cytotoxic activity of the novel family was evaluated against various tumor cells, including myeloma cells, acute lymphoblastic leukemia cells, acute monocytic leukemia cells, chronic myelogenous leukemia cells, pancreatic cancer cells, breast cancer cells, uterine sarcoma cells, cervix adenocarcinoma cells, ovary cancer cells, melanoma cells, osteosarcoma cells, prostate cancer cells, lung cancer cells, neuroblastoma cells and colorectal adenocarcinoma cells by XTT assay.
(§2) Most tubulin-binding anticancer drugs currently used in the clinic are substrates for Pgp effux pump. […] The inventors tested the viability of NALM6 acute lymphoblastic leukemia cell line (ALL) and its corresponding doxorubicin resistant N6/ADR cell line that overexpress Pgp glycoprotein and has cross-resistance to vincristine.

A2780ADR cells = test: XTT cytotoxicity, A2780ADR; format: cell-based; conditions: for IC50 ratio between resistant and non-resistant cells: A2780ADR / A2780; for pIC50: A2780ADR, ovarian carcinoma, resistant
Experimental: as §1

NCI-H69 VCR/R cells = test: XTT cytotoxicity, NCI-H69 VCR/R; format: cell-based; conditions: for IC50 ratio between resistant and non-resistant cells: NCI-H69 VCR/R / NCI-H69; for pIC50: NCI-H69 VCR/R, vincristine resistant
Experimental: as §1

RPMI 8226 cells = test: XTT cytotoxicity, RPMI 8226; format: cell-based; conditions: RPMI 8226, multiple myeloma, non-resistant, read-out: IC50
Experimental: as §1

NALM6 cells = test: XTT cytotoxicity, NALM6; format: cell-based; conditions: NALM6, acute lymphoblastic leukemia, non-resistant, read-out: IC50
Experimental: as §1, §2

MES-SA cells = test: XTT cytotoxicity, MES-SA; format: cell-based; conditions: poorly differentiated uterine sarcoma, non-resistant
Experimental: as §1

MM1.R cells = test: XTT cytotoxicity, MM1.R; format: cell-based; conditions: for pIC50: MM1.R, multiple myeloma, dexamethasone resistant, read-out: IC50; for IC50 ratio between resistant and non-resistant cells: MM1.R / MM1.S
Experimental: as §1

NCI-H69 cells = test: XTT cytotoxicity, NCI-H69; format: cell-based; conditions: NCI-H69, small cell lung carcinoma, non-resistant
Experimental: as §1

MM1.S cells = test: XTT cytotoxicity, MM1.S; format: cell-based; conditions: multiple myeloma, non-resistant, read-out: IC50
Experimental: as §1

A2780 cells = test: XTT cytotoxicity, A2780; format: cell-based; conditions: A2780, ovarian carcinoma, non-resistant
Experimental: as §1

RPMI-LR5 cells = test: XTT cytotoxicity, RPMI-LR5; format: cell-based; conditions: for pIC50: RPMI-LR5, multiple myeloma, melphalan resistant, read-out: IC50; for IC50 ratio between resistant and non-resistant cells: RPMI-LR5 / RPMI 8226
Experimental: as §1

RPMI-DOX40 cells = test: XTT cytotoxicity, RPMI-DOX40; format: cell-based; conditions: for pIC50: RPMI-DOX40, multiple myeloma, P-gp overexpression, read-out: IC50; for IC50 ratio between resistant and non-resistant cells: RPMI-DOX40 / RPMI 8226
Experimental: as §1

MES-SA/DX5 cells = test: XTT cytotoxicity, MES-SA/DX5; format: cell-based; conditions: for pIC50: MES-SA/DX5, uterine sarcoma, P-gp overexpression; for IC50 ratio between resistant and non-resistant cells: MES-SA/DX5 / MES-SA; for effectiveness in subline overexpressing PgP: MES-SA/DX5 vs MES-SA
Experimental: as §1

MCF7-VP cells = test: XTT cytotoxicity, MCF7-VP; format: cell-based; conditions: for pIC50: Homo sapiens, MCF7-VP, breast adenocarcinoma, MRP overexpression; for IC50 ratio between resistant and non-resistant cells: MCF7-VP / MCF7
Experimental: as §1

RPMI-MR20 cells = test: XTT cytotoxicity, RPMI-MR20; format: cell-based; conditions: for pIC50: RPMI-MR20, mitoxantrone resistant, read-out: IC50; for IC50 ratio between resistant and non-resistant cells: RPMI-MR20 / RPMI 8226
Experimental: as §1

purified tubulin = test: Tubulin polymerization, cell-free assay; format: biochemical; conditions: tubulin 2.00 mg/mL; 1, 15 and 30 μM; 37° C., 100 min; vs vehicle
Experimental: The effect of the compounds on their ability to inhibit tubulin polymerization, was tested against a vehicle control by evaluating polymerization of purified tubulin in a cell-free assay where tubulin (2.00 mg/mL) was exposed to vehicle control or 1, 15 and 30 μM of the compounds (n=2). Polymerizations were tracked by an increase in fluorescence excitation wavelength is 340-360 nm and emission wavelength at 410-460 nm. Fluorescence was monitored at 37° C. every 30 sec for 100 min.

[1] = tested on: colchicine binding site on tubulin protein; test: EBI competition assay, RPMI-8226 cells; format: cell-based; conditions: RPMI-8226 living cells
MCF7 cells = test: XTT cytotoxicity, MCF7; format: cell-based; conditions: Homo sapiens; MCF7, breast adenocarcinoma, non-resistant
Experimental: as §1

SMILES	IC50 ratio between resistant and non-resistant cells (N6/ADR cells)	sensitivity to Pgp glycoprotein overexpression (N6/ADR cells)	pIC50 (N6/ADR cells)	IC50 ratio between resistant and non-resistant cells (A2780ADR cells)	IC50 ratio between resistant and non-resistant cells (NCI-H69 VCR/R cells)	pIC50 (RPMI-LR5 cells)	IC50 ratio between resistant and non-resistant cells (RPMI-LR5 cells)	pIC50 (RPMI-DOX40 cells)	IC50 ratio between resistant and non-resistant cells (RPMI-DOX40 cells)	IC50 ratio between resistant and non-resistant cells (MES-SA/DX5 cells)	effectiveness in subline overexpressing PgP (MES-SA/DX5 cells)	pIC50 (MCF7-VP cells)	IC50 ratio between resistant and non-resistant cells (MCF7-VP cells)	pIC50 (RPMI 8226 cells; Homo sapiens)	pIC50 (NALM6 cells; Homo sapiens, NALM-6)	pIC50 (MES-SA cells; Homo sapiens)	IC50 ratio between resistant and non-resistant cells (MM1.R cells)	pIC50 (MM1.R cells; MM.1R)	pIC50 (RPMI-MR20 cells)	IC50 ratio between resistant and non-resistant cells (RPMI-MR20 cells)	further results
CC[C@H](C)[C@@H]([C@@H](CC(=O)N1CCC[C@H]1[C@H](OC)[C@@H](C)C(=O)N[C@H](C)[C@@H](O)c1ccccc1)OC)N(C)C(=O)[C@@H](NC(=O)[C@@H](NC)C(C)C)C(C)C [MMAE, reference compound] (H-[NMeV]V[Dil][Dolaproine]-X1)	2.667	sensitive to PgP	9.10	31.250	0.667	< 7.82	>6.000	< 7.82	>6.000	165.037	less effective in the subline overexpressing PgP										pIC50 (A2780ADR cells): 7.60; pIC50 (NCI-H69 VCR/R cells): 8.70; pIC50 (RPMI 8226 cells): > 8.60; pIC50 (NALM6 cells): 9.52; pIC50 (MES-SA cells): 7.80; pIC50 (MM1.R cells): > 8.60; pIC50 (NCI-H69 cells): 8.52; pIC50 (MM1.S cells): > 8.60; pIC50 (A2780 cells): 9.10; pIC50 (MES-SA/DX5 cells): 5.56
Cc1c(C(=O)OCCCCO)oc2c1C(=O)CC(c1ncco1)C2 (centres unmarked) [SMS229, 4-hydroxybutyl-3-methyl-6-(oxazol-2-yl)-4-oxo-4,5,6,7-tetrahydrobenzofuran-2-carboxylate]	1.136		6.17			6.02	1.186	6.03	1.155	0.700		4.92	0.360	6.09	6.23	5.34	>0.779	< 5.80	5.81	1.916	rate of tubulin polymerization (purified tubulin): inhibited the rate of tubulin polymerization in a concentration-dependent manner; prevention of covalent binding of EBI to the colchicine binding site [1]: prevented the covalent binding of EBI to the colchicine binding site; pIC50 (MM1.S cells; Homo sapiens): 5.69; pIC50 (MCF7 cells): 4.48; pIC50 (MES-SA/DX5 cells; Homo sapiens): 5.50
CC[C@]1(O)C[C@H]2CN(CCc3c([nH]c4ccccc34)[C@@](C(=O)OC)(c3cc4c(cc3OC)N(C=O)[C@H]3[C@@](O)(C(=O)OC)[C@H](OC(C)=O)[C@]5(CC)C=CCN6CC[C@]43[C@@H]65)C2)C1 [Vincristine, reference compound]	10.909	sensitive to PgP	7.92	77.000	>41.667	< 8.40	>2.105	< 8.00	>5.263	3.684	less effective in the subline overexpressing PgP	6.66	2.821	8.72	8.96	6.00	1.063	8.77	9.52	0.158	resistance of cells to treatment (A2780ADR cells; A2780ADR ovary carcinoma cells): resistant to vincristine; pIC50 (A2780ADR cells; A2780 ADR): 6.64; pIC50 (NCI-H69 VCR/R cells; Homo sapiens): < 6.00; resistance of cells to treatment (NCI-H69 VCR/R cells; NCI-H69 VCR/R lung carcinoma cells): resistant to vincristine; pIC50 (NCI-H69 cells; Homo sapiens): 7.62; pIC50 (MM1.S cells; Homo sapiens): 8.80; pIC50 (MCF7 cells): 7.11; pIC50 (A2780 cells; Homo sapiens): 8.52; pIC50 (MES-SA/DX5 cells; Homo sapiens): 5.43

From patent US20260226037A1, “MICROTUBULE TARGETING AGENTS” (ARIEL SCIENTIFIC INNOVATIONS LTD., priority 2022, published 2026)
